The values that follow come from the NIST ThermoML archive (doi:10.1016/j.fluid.2007.01.038).

Molecules are shown by their SMILES. ± gives the expanded uncertainty stated by the source.

The term refractive index denotes a measure of how strongly the sample bends light. Usually mass density stands for mass per unit of volume.

Data set [1] can be described thus: refractive index (Na D-line) (dimensionless). As to conditions: 298.15 K; 101.33 kPa; Liquid; Standard Abbe refractometry.
For data set [2] the following is noted: Liquid; for mass density: 298.15 K, 101.33 kPa; for Normal boiling temperature: Ebulliometric method (Recirculating still).

In the case of `CCO` [ethanol], the refractive index in data set [1] is recorded as 1.3592 ± 0.00073. In addition, in data set [2], the mass density was 785.22 ± 0.5 kg/m3 and the Normal boiling temperature was found to be 78.29 ± 0.1 °C.

Consider `CO` [methanol], for which, in data set [1], the refractive index was 1.3264 ± 0.0007. Moreover, in data set [2], the mass density is 786.63 ± 0.5 kg/m3 and the Normal boiling temperature was found to be 64.4 ± 0.1 °C.

As for `CCCCOC(C)(C)C` [butane, 1-(1,1-dimethylethoxy)-], in data set [1], the refractive index is given as 1.3917 ± 0.00072. Further, in data set [2], the mass density was 757.57 ± 0.26 kg/m3 and the Normal boiling temperature turned out to be 122.50 ± 0.1 °C.
